Data taken from US20140135310A1, “SULPHONAMIDE DERIVATIVES OF ALICYCLIC AMINES FOR THE TREATMENT OF CENTRAL NERVOUS SYSTEM DISEASES” (Adamed Sp. z o.o., priority 2011, published 2014).

Tests used:
[1] = molecular target: dopaminergic receptors D2 (Homo sapiens, UniProt P14416); experiment: Radioligand binding assay, dopaminergic D2 receptors; details: binding assay, test compound 1×10^−6 M
How it was run: (§1)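 Scintillation read-out. Specific = total − nonspecific (excess cold ligand). Data as % of control specific binding / % inhibition; IC50 by Hill fit; Ki = IC50/(1+L/KD), KD from Scatchard plot.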

[2] = molecular target: dopaminergic receptors D3 (Homo sapiens, UniProt P35462); experiment: Radioligand binding assay, dopaminergic D3 receptors; details: test compound 1×10^−6 M
dopaminergic receptors D3, sequence (P35462 whole entry): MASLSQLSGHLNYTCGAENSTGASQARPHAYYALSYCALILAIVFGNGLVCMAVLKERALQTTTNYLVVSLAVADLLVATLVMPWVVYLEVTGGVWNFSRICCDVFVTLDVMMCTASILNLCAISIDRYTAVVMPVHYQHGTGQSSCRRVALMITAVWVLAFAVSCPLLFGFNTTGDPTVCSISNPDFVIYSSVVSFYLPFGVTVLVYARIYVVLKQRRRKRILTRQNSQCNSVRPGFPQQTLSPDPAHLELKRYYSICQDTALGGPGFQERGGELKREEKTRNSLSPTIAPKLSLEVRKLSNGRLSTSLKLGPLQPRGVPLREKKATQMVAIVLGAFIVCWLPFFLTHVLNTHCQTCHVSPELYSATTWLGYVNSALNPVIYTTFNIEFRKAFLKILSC
How it was run: as §1

[3] = molecular target: T1, 5-HT1A receptor (rat hippocampus) (Rattus norvegicus, UniProt P19327); experiment: Radioligand binding assay, serotoninergic 5-HT1A receptors; details: binding assay result in %, Table 5a;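 also: test compound at 1 µM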
T1 construct: hippocampus; from tissue; host or cells: rat hippocampus
T1 sequence (P19327 1-422): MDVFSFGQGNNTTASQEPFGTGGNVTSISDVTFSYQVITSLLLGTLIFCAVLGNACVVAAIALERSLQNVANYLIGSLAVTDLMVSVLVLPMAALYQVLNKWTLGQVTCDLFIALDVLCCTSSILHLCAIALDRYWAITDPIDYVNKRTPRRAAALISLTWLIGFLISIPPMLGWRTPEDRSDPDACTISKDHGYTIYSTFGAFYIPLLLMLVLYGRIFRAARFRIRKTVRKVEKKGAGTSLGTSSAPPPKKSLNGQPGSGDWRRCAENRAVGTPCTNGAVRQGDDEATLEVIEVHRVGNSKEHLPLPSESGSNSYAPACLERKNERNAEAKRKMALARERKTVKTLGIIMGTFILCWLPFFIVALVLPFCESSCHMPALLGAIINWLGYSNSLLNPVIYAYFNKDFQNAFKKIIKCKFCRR

5-HT2A receptor = molecular target: T2, 5-HT2A receptor (Homo sapiens, UniProt P28223); experiment: Radioligand binding assay, serotoninergic 5-HT2A receptors; details: binding assay result in %, Table 5a
T2 construct: purchased PerkinElmer
T2 sequence (P28223 whole entry): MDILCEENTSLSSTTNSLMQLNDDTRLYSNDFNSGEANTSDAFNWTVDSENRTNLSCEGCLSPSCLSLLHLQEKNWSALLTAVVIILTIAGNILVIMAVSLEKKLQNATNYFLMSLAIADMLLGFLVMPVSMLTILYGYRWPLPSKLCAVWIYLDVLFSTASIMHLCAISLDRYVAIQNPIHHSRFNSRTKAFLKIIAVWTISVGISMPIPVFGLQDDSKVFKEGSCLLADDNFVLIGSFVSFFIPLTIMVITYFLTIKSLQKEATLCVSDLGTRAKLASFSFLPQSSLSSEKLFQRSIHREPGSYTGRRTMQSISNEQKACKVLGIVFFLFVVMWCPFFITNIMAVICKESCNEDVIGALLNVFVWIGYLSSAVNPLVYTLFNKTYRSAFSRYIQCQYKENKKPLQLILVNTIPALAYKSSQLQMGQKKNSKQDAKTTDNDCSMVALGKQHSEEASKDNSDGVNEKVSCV
How it was run: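 Competition curves from scintillation-counted specific binding (total minus binding with excess unlabelled ligand) were Hill-fitted to give IC50, converted to Ki via Cheng-Prusoff using Scatchard-derived Kd.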

5-HT6 receptor = molecular target: T3, 5-HT6 receptor (Homo sapiens, UniProt P50406); experiment: Radioligand binding assay, serotoninergic 5-HT6 receptors; details: binding assay result in %, Table 5a;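 also: test compound at 1 µM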
T3 construct: purchased PerkinElmer
T3 sequence (P50406 whole entry): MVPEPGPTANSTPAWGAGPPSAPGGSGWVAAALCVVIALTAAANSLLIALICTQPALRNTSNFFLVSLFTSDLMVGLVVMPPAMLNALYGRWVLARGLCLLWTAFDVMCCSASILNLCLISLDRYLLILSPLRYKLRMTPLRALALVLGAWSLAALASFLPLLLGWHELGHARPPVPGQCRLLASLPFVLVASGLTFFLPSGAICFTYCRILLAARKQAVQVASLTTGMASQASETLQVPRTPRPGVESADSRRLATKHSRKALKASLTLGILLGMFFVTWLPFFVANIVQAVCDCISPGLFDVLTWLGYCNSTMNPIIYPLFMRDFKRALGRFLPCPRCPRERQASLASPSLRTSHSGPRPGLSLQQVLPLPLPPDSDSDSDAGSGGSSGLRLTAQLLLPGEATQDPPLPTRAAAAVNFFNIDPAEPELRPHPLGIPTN
How it was run: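 Values are Ki from Cheng–Prusoff, taking IC50 from Hill nonlinear regression of competition curves and KD from a Scatchard plot. Specific binding was total minus binding with excess unlabelled ligand. Radioligand displacement was detected by scintillation counting, and data were also reported as percent of control specific binding.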

5-HT7 receptor = molecular target: T4, 5-HT7 receptor (Homo sapiens, UniProt P34969); experiment: Radioligand binding assay, serotoninergic 5-HT7 receptors; details: binding assay result in %, Table 5a;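 also: test compound at 1 µM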
T4 construct: purchased PerkinElmer
T4 sequence (P34969 whole entry): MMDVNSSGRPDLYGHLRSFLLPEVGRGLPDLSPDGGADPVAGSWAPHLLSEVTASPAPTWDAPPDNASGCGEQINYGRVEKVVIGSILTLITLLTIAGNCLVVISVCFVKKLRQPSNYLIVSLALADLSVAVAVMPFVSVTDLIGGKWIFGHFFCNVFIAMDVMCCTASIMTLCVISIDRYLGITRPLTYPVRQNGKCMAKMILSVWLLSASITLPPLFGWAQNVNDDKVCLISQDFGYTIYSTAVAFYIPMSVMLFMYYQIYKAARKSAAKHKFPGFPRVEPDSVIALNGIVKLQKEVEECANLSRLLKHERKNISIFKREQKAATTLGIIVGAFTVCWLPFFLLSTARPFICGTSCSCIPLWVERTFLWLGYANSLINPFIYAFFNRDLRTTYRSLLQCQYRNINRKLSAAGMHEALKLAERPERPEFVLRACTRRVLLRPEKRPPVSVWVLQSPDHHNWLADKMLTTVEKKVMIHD
How it was run: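 Ki values used the Cheng–Prusoff equation, with KD from Scatchard analysis, applied to IC50 from Hill fits of human 5-HT7 radioligand competition curves. Bound radioligand was counted by scintillation, and excess unlabelled ligand set the non-specific binding.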

[4] = tested on: α1 adrenergic receptors (rat cerebral cortex); experiment: Radioligand binding assay, adrenergic α1 receptors; details: test compound 1×10^−6 M
How it was run: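 Values derive from radioligand displacement, with non-specific binding defined by excess cold ligand and detection by scintillation. Hill-fit IC50s were converted to Ki via Cheng-Prusoff using Scatchard-derived Kd; percent inhibition of control specific binding also reported.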

[5] = molecular target: T5, serotonin transporter (SERT) (Homo sapiens, UniProt P31645); experiment: Radioligand binding assay, serotonin transporter (SERT); details: binding assay, test compound 1×10^−6 M
T5 construct: expressed in transfected cells; host or cells: CHO cells
T5 sequence (P31645 whole entry): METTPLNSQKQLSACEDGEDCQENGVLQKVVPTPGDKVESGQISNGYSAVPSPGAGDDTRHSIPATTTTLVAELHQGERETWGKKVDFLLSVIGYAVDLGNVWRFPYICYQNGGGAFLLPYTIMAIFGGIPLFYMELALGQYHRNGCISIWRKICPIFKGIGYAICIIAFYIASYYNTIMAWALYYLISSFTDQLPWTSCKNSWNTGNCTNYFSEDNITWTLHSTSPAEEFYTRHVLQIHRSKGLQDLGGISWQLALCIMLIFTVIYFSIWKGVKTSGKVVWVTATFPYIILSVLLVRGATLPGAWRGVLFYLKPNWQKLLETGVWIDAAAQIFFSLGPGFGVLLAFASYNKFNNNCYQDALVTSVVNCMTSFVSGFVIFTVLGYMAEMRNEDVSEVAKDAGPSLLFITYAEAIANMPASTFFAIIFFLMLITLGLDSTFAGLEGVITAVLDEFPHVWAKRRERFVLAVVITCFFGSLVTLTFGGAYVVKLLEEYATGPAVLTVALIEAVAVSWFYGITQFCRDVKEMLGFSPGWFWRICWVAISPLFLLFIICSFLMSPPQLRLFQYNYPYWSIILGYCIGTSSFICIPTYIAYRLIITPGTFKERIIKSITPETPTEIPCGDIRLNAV
How it was run: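 Values are derived from competition curves fitted by the Hill equation to give IC50, then converted to Ki by Cheng-Prusoff with radioligand Kd from Scatchard analysis. Specific binding equals total minus non-specific (excess cold ligand), counted by scintillation, and is also expressed as percent inhibition of control.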

dopaminergic receptors D2, sequence (P14416 whole entry): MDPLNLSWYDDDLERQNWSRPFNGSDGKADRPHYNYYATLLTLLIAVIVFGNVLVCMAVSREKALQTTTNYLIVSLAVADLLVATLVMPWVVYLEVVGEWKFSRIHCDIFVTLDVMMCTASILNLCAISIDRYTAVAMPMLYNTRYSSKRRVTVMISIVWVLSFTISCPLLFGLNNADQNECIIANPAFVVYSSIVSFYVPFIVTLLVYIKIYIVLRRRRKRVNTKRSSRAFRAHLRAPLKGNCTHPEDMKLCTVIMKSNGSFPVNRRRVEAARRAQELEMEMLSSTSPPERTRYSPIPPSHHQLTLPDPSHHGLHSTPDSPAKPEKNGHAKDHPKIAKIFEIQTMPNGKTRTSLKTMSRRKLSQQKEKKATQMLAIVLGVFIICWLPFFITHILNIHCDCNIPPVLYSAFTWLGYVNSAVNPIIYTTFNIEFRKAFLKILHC

## Cc1c(S(=O)(=O)NCC2CN(CCOc3cccc4ccccc34)C2)sc2ccc(F)cc12 [Compound 166, 5-Fluoro-3-methyl-N-[[1-[2-(1-naphthyloxy)ethyl]azetidin-3-yl]methyl]benzothiophene-2-sulphonamide]
[1]
  inhibition at 1 µM: 82%
[2]
  inhibition at 1 µM: 101%
[3]
  inhibition at 1 µM: 78%
5-HT2A receptor
  inhibition at 1 µM: 100%
5-HT6 receptor
  inhibition at 1 µM: 98%
5-HT7 receptor
  inhibition at 1 µM: 97%
[4]
  α1 [%]: 23%
[5]
  inhibition at 1 µM: 32%

## Cc1c(S(=O)(=O)NCC2CN(CCOc3cccc4ccccc34)C2)sc2ccc(Cl)cc12 [Compound 167, 5-Chloro-3-methyl-N-[[1-[2-(1-naphthyloxy)ethyl]azetidin-3-yl]methyl]benzothiophene-2-sulphonamide]
[1]
  inhibition at 1 µM: 60%
[2]
  inhibition at 1 µM: 97%
[3]
  inhibition at 1 µM: 75%
5-HT2A receptor
  inhibition at 1 µM: 95%
5-HT6 receptor
  inhibition at 1 µM: 94%
5-HT7 receptor
  inhibition at 1 µM: 90%
[4]
  α1 [%]: 3%
[5]
  inhibition at 1 µM: 31%

## O=S(=O)(NCC1CN(CCOc2cccc3ccccc23)C1)c1cccc2ccccc12 [Compound 168, N-[[1-[2-(1-Naphthyloxy)ethyl]azetidin-3-yl]methyl]naphthalene-1-sulphonamide]
[1]
  inhibition at 1 µM: 64%
[2]
  inhibition at 1 µM: 94%
[3]
  inhibition at 1 µM: 79%
5-HT2A receptor
  inhibition at 1 µM: 96%
5-HT6 receptor
  inhibition at 1 µM: 93%
5-HT7 receptor
  inhibition at 1 µM: 92%
[4]
  α1 [%]: 31%
[5]
  inhibition at 1 µM: 25%

## Cn1ccc2cc(S(=O)(=O)NCC3CN(CCOc4cccc5ccccc45)C3)ccc21 [Compound 169, 1-Methyl-N-[[1-[2-(1-naphthyloxy)ethyl]azetidin-3-yl]methyl]indole-5-sulphonamide]
[1]
  inhibition at 1 µM: 84%
[2]
  inhibition at 1 µM: 100%
[3]
  inhibition at 1 µM: 84%
5-HT2A receptor
  inhibition at 1 µM: 69%
5-HT6 receptor
  inhibition at 1 µM: 100%
5-HT7 receptor
  inhibition at 1 µM: 93%
[4]
  α1 [%]: 74%
[5]
  inhibition at 1 µM: 75%

## Cn1ccc2c(S(=O)(=O)NCC3CN(CCOc4cccc5ccccc45)C3)cccc21 [Compound 170, 1-Methyl-N-[[1-[2-(1-naphthyloxy)ethyl]azetidin-3-yl]methyl]indole-4-sulphonamide]
[1]
  inhibition at 1 µM: 79%
[2]
  inhibition at 1 µM: 98%
[3]
  inhibition at 1 µM: 90%
5-HT2A receptor
  inhibition at 1 µM: 72%
5-HT6 receptor
  inhibition at 1 µM: 93%
5-HT7 receptor
  inhibition at 1 µM: 104%
[4]
  α1 [%]: 63%
[5]
  inhibition at 1 µM: 93%

## O=S(=O)(NCC1CN(CCOc2cccc3ccccc23)C1)c1csc2ccccc12 [Compound 171, N-[[1-[2-(1-Naphthyloxy)ethyl]azetidin-3-yl]methyl]benzothiophene-3-sulphonamide]
[1]
  inhibition at 1 µM: 72%
[2]
  inhibition at 1 µM: 99%
[3]
  inhibition at 1 µM: 92%
5-HT2A receptor
  inhibition at 1 µM: 101%
5-HT6 receptor
  inhibition at 1 µM: 96%
5-HT7 receptor
  inhibition at 1 µM: 94%
[4]
  α1 [%]: 50%
[5]
  inhibition at 1 µM: 44%

## O=S(=O)(NCC1CN(CCOc2cccc3ccccc23)C1)c1ccc(F)c(Cl)c1 [Compound 172, 3-Chloro-4-fluoro-N-[[1-[2-(1-naphthyloxy)ethyl]azetidin-3-yl]methyl]-benzenesulphonamide]
[1]
  inhibition at 1 µM: 76%
[2]
  inhibition at 1 µM: 100%
[3]
  inhibition at 1 µM: 85%
5-HT2A receptor
  inhibition at 1 µM: 71%
5-HT6 receptor
  inhibition at 1 µM: 96%
5-HT7 receptor
  inhibition at 1 µM: 92%
[4]
  α1 [%]: 40%
[5]
  inhibition at 1 µM: 46%

## O=S(=O)(NCC1CN(CCOc2cccc3ccccc23)C1)c1ccc(F)c(F)c1 [Compound 173, 3,4-Difluoro-N-[[1-[2-(1-naphthyloxy)ethyl]azetidin-3-yl]methyl]-benzenesulphonamide]
[1]
  inhibition at 1 µM: 59%
[2]
  inhibition at 1 µM: 99%
[3]
  inhibition at 1 µM: 83%
5-HT2A receptor
  inhibition at 1 µM: 73%
5-HT6 receptor
  inhibition at 1 µM: 91%
5-HT7 receptor
  inhibition at 1 µM: 105%
[4]
  α1 [%]: 56%
[5]
  inhibition at 1 µM: 50%

## O=S(=O)(NCC1CN(CCOc2cccc3c2OCCO3)C1)c1ccc2cc(Cl)ccc2c1 [Compound 174, 6-Chloro-N-[[1-[2-(2,3-dihydro-1,4-benzodioxin-5-yloxy)ethyl]azetidin-3-yl]methyl]naphthalene-2-sulphonamide]
[1]
  inhibition at 1 µM: 25%
[2]
  inhibition at 1 µM: 22%
[3]
  inhibition at 1 µM: 91%
5-HT2A receptor
  inhibition at 1 µM: 44%
5-HT6 receptor
  inhibition at 1 µM: 64%
5-HT7 receptor
  inhibition at 1 µM: 90%
[4]
  α1 [%]: 15%
[5]
  inhibition at 1 µM: 20%

## Cc1c(S(=O)(=O)NCC2CN(CCOc3cccc4c3OCCO4)C2)sc2ccc(Cl)cc12 [Compound 175, 5-Chloro-N-[[1-[2-(2,3-dihydro-1,4-benzodioxin-5-yloxy)ethyl]azetidin-3-yl]methyl]-3-methyl-benzothiophene-2-sulphonamide]
[1]
  inhibition at 1 µM: 68%
[2]
  inhibition at 1 µM: 78%
[3]
  inhibition at 1 µM: 75%
5-HT2A receptor
  inhibition at 1 µM: 105%
5-HT6 receptor
  inhibition at 1 µM: 95%
5-HT7 receptor
  inhibition at 1 µM: 92%
[4]
  α1 [%]: 50%
[5]
  inhibition at 1 µM: 19%

## O=S(=O)(NCC1CN(CCOc2cccc3c2OCCO3)C1)c1cccc2ccccc12 [Compound 176, N-[[1-[2-(2,3-Dihydro-1,4-benzodioxin-5-yloxy)ethyl]azetidin-3-yl]methyl]-naphthalene-1-sulphonamide]
[1]
  inhibition at 1 µM: 21%
[2]
  inhibition at 1 µM: 8%
[3]
  inhibition at 1 µM: 98%
5-HT2A receptor
  inhibition at 1 µM: 35%
5-HT6 receptor
  inhibition at 1 µM: 14%
5-HT7 receptor
  inhibition at 1 µM: 87%
[4]
  α1 [%]: 51%
[5]
  inhibition at 1 µM: -2%

## O=S(=O)(NCC1CN(CCOc2cccc3c2OCCO3)C1)c1ccc2ccccc2c1 [Compound 177, N-[[1-[2-(2,3-Dihydro-1,4-benzodioxin-5-yloxy)ethyl]azetidin-3-yl]methyl]-naphthalene-2-sulphonamide]
[1]
  inhibition at 1 µM: 13%
[2]
  inhibition at 1 µM: 42%
[3]
  inhibition at 1 µM: 97%
5-HT2A receptor
  inhibition at 1 µM: 66%
5-HT6 receptor
  inhibition at 1 µM: 44%
5-HT7 receptor
  inhibition at 1 µM: 88%
[4]
  α1 [%]: 55%
[5]
  inhibition at 1 µM: 25%

## O=S(=O)(NCC1CN(CCOc2cccc3c2OCCO3)C1)c1ccc(-c2ccccc2)cc1 [Compound 178, N-[[1-[2-(2,3-Dihydro-1,4-benzodioxin-5-yloxy)ethyl]azetidin-3-yl]methyl]-4-phenyl-benzenesulphonamide]
[1]
  inhibition at 1 µM: 8%
[2]
  inhibition at 1 µM: 25%
[3]
  inhibition at 1 µM: 96%
5-HT2A receptor
  inhibition at 1 µM: 73%
5-HT6 receptor
  inhibition at 1 µM: 21%
5-HT7 receptor
  inhibition at 1 µM: 89%
[4]
  α1 [%]: 20%
[5]
  inhibition at 1 µM: -6%

## O=S(=O)(NCC1CN(CCOc2cccc3c2OCCO3)C1)c1ccc(Cl)cc1 [Compound 179, 4-Chloro-N-[[1-[2-(2,3-dihydro-1,4-benzodioxin-5-yloxy)ethyl]azetidin-3-yl]methyl]benzenesulphonamide]
[1]
  inhibition at 1 µM: 6%
[2]
  inhibition at 1 µM: 40%
[3]
  inhibition at 1 µM: 92%
5-HT2A receptor
  inhibition at 1 µM: 57%
5-HT6 receptor
  inhibition at 1 µM: -15%
5-HT7 receptor
  inhibition at 1 µM: 90%
[4]
  α1 [%]: 61%
[5]
  inhibition at 1 µM: -8%

## O=S(=O)(NCC1CN(CCOc2cccc3c2OCCO3)C1)c1ccc(C(F)(F)F)cc1 [Compound 180, N-[[1-[2-(2,3-Dihydro-1,4-benzodioxin-5-yloxy)ethyl]azetidin-3-yl]methyl]-4-(trifluoromethyl)benzenesulphonamide]
[1]
  inhibition at 1 µM: 23%
[2]
  inhibition at 1 µM: 46%
[3]
  inhibition at 1 µM: 93%
5-HT2A receptor
  inhibition at 1 µM: 68%
5-HT6 receptor
  inhibition at 1 µM: 31%
5-HT7 receptor
  inhibition at 1 µM: 94%
[4]
  α1 [%]: 39%
[5]
  inhibition at 1 µM: 14%

## O=S(=O)(NCC1CN(CCOc2cccc3c2OCCO3)C1)c1ccc(F)cc1 [Compound 182, N-[[1-[2-(2,3-Dihydro-1,4-benzodioxin-5-yloxy)ethyl]azetidin-3-yl]methyl]-4-fluoro-benzenesulphonamide]
[1]
  inhibition at 1 µM: 33%
[2]
  inhibition at 1 µM: 45%
[3]
  inhibition at 1 µM: 63%
5-HT2A receptor
  inhibition at 1 µM: 61%
5-HT6 receptor
  inhibition at 1 µM: 31%
5-HT7 receptor
  inhibition at 1 µM: 95%
[4]
  α1 [%]: 78%
[5]
  inhibition at 1 µM: -7%
